According to ChEMBL document CHEMBL1201862, “PubChem BioAssay data set” (2004):
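Cells were grown in 96-well plates and exposed to each compound for 48 hours at five concentrations; endpoints were interpolated linearly between bracketing concentrations, or set to the highest concentration if not reached. The concentration for 50% growth inhibition is given as GI50.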 Calls of active or inactive are those of the source. Rule as the data show it: active = GI50 up to about 1.1 µM and inactive = higher.

Key:
Assay in all cases: NCI anticancer screen, dose series, 48 h
[1] = test system: CCRF-CEM
[2] = test system: HCT-116
[3] = test system: HOP-62
[4] = test system: IGROV-1
[5] = test system: LXFL 529
[6] = test system: NCI-H23
[7] = test system: OVCAR-5
[8] = test system: OVCAR-8
[9] = test system: SF-268
[10] = test system: SK-MEL-5
[11] = test system: SK-OV-3
[12] = test system: SNB-19
[13] = test system: SW-620
[14] = test system: U-251
[15] = test system: RXF 393
[16] = test system: SF-539
[17] = test system: SNB-75
[18] = test system: MDA-MB-231
[19] = test system: MDA-N
[20] = test system: T47D

Measured: GI50

CCCCCCCCCCCCCCCCCC(=O)NCCCNCCCNC(=O)CCCCCCCCCCCCCCCCC
inactive: [1] > 100 µM | [2] > 100 µM | [3] > 100 µM | [4] > 100 µM | [5] > 100 µM | [6] > 100 µM | [7] > 100 µM | [8] > 100 µM | [9] > 100 µM | [10] > 100 µM | [11] > 100 µM | [12] > 100 µM | [13] > 100 µM | [14] > 100 µM

COC(=O)c1ccccc1NC(=O)C(=O)NNC(=O)c1ccncc1
inactive: [1] > 100 µM | [2] > 100 µM | [3] > 100 µM | [4] > 100 µM | [5] > 100 µM | [6] > 100 µM | [8] > 100 µM | [15] > 100 µM | [9] > 10 µM | [16] > 100 µM | [10] > 100 µM | [11] > 100 µM | [12] > 100 µM | [17] > 100 µM | [13] > 100 µM

Clc1ccc(C2=NOC3C4CCC(C4)C23)cc1 (stereo not drawn)
inactive: [1] > 100 µM | [2] > 100 µM | [3] > 100 µM | [4] > 100 µM | [5] > 100 µM | [6] > 100 µM | [7] > 100 µM | [8] > 100 µM | [9] > 100 µM | [16] > 100 µM | [10] > 100 µM | [11] > 100 µM | [12] > 100 µM | [17] > 100 µM | [13] > 100 µM | [14] > 100 µM

CCOC(=O)NC(=O)c1cn(CC(=O)NCC(=O)NCC(=O)N2CCN(CCn3c(C)nc(C(N)=O)c3N)CC2)c(=O)[nH]c1=O
inactive: [1] > 100 µM | [2] > 100 µM | [3] > 100 µM | [4] > 100 µM | [5] > 100 µM | [6] > 100 µM | [8] > 100 µM | [9] > 100 µM | [16] > 100 µM | [10] > 100 µM | [11] > 100 µM | [12] > 100 µM | [17] > 100 µM | [13] > 100 µM | [14] > 100 µM

Cc1cc2c(cc1C)[n+]([O-])c(C(=O)/C=C/c1ccc(Cl)cc1)c(C)[n+]2[O-]
inactive: [1] 32.9 µM | [3] 24.4 µM | [4] 24.5 µM | [5] 28.2 µM | [6] 20.7 µM | [7] 42.3 µM | [8] 29.7 µM | [9] > 10 µM | [16] 20.5 µM | [10] 23.7 µM | [11] 34.7 µM | [12] 30.3 µM | [17] 19.6 µM | [13] 31.1 µM | [14] 26.8 µM

CN(C)CCCNC(=O)N/N=C/c1cccc([N+](=O)[O-])c1
inactive: [1] > 100 µM | [2] > 100 µM | [4] > 100 µM | [5] > 100 µM | [6] > 100 µM | [8] > 100 µM | [15] > 100 µM | [9] > 100 µM | [16] > 100 µM | [10] > 100 µM | [11] > 100 µM | [12] > 100 µM | [17] 44 µM | [13] > 100 µM | [14] > 100 µM

NC(=O)N1N=C2c3ccccc3SC[C@H]2[C@@H]1c1ccccc1
inactive: [1] 23.1 µM | [2] 13.5 µM | [3] 25.6 µM | [4] 26.6 µM | [5] 26.5 µM | [6] 35.6 µM | [7] 21.3 µM | [8] 24 µM | [15] 2.26 µM | [9] 33.3 µM | [10] 8.07 µM | [12] 34.5 µM | [13] 33.7 µM | [14] 22.1 µM

O=c1[nH]c(-c2ccccc2)nc2cc([N+](=O)[O-])c(/C(Cl)=C/c3ccccc3)cc12
inactive: [2] 21 µM | [4] 55 µM | [5] 16.4 µM | [6] 43.3 µM | [7] > 100 µM | [8] 19.7 µM | [15] 14.4 µM | [9] 29.2 µM | [16] 25.2 µM | [10] 16.1 µM | [11] 27.3 µM | [12] 41 µM | [17] 22.3 µM | [13] 23.6 µM | [14] 28.6 µM

Nc1ccc2c(c1)Oc1c(F)c(F)cc3c(=O)c(C(=O)O)cn-2c13
inactive: [1] 33 µM | [2] 24.2 µM | [3] 31.7 µM | [4] 38.6 µM | [5] 41.5 µM | [6] 64.1 µM | [7] > 100 µM | [8] 40.2 µM | [15] 43.8 µM | [9] > 10 µM | [16] 39.2 µM | [10] 17.1 µM | [11] > 100 µM | [12] 35.2 µM | [13] 41.3 µM | [14] 34.2 µM

[N-]=[N+]=NC(c1cn(C2CC(O)C(CO)O2)c(=O)[nH]c1=O)C(Cl)Br (stereo not drawn)
inactive: [1] 50.8 µM | [2] > 100 µM | [5] > 100 µM | [6] > 100 µM | [8] > 100 µM | [15] > 100 µM | [16] > 100 µM | [10] > 100 µM | [12] > 100 µM | [17] > 100 µM | [13] > 100 µM | [14] > 100 µM

COC(=O)C(=O)C(CC(=O)Nc1ccc(C)cc1)C(=O)OC (stereo not drawn)
inactive: [1] > 100 µM | [2] > 100 µM | [3] > 100 µM | [4] > 100 µM | [5] > 100 µM | [6] > 100 µM | [7] > 100 µM | [8] > 100 µM | [15] > 100 µM | [9] > 100 µM | [16] > 100 µM | [10] > 100 µM | [11] > 100 µM | [12] > 100 µM | [13] > 100 µM | [14] > 100 µM

O=S(=O)(O)c1ccc2cccc(/N=N\c3c(O)ccc4ccccc34)c2c1
inactive: [1] > 100 µM | [2] > 100 µM | [3] > 100 µM | [4] > 100 µM | [18] > 100 µM | [19] > 100 µM | [6] > 100 µM | [7] > 100 µM | [8] > 100 µM | [15] > 100 µM | [9] > 100 µM | [16] > 100 µM | [10] > 100 µM | [11] > 100 µM | [12] > 100 µM | [17] > 100 µM | [13] > 100 µM | [20] > 100 µM | [14] > 100 µM

COc1ccc2[nH]c3c(O)nncc3c2c1
inactive: [1] > 100 µM | [2] > 100 µM | [3] > 100 µM | [4] > 100 µM | [5] > 100 µM | [6] > 100 µM | [7] > 100 µM | [8] > 100 µM | [9] > 100 µM | [16] > 100 µM | [10] > 100 µM | [11] 45.7 µM | [12] > 100 µM | [17] 16.4 µM | [13] > 100 µM | [14] > 100 µM
